In publication PMC6178282, “Comparative cell biological study of in vitro antitumor and antimetastatic activity on melanoma cells of GnRH-III-containing conjugates modified with short-chain fatty acids” (Beilstein Journal of Organic Chemistry, 2018):

Key:
A2058 melanoma cells = assay: Morphometry analysis by HoloMonitor M4 holographic microscopy; format: cell-based, human; settings: fold change during treatment normalized to control cells, average ± SD, 50 cells/group, 180 consecutive frames
Description: Holographic microscopic measurements were also performed to visualize the morphological changes induced by the conjugates and Dau. This novel technique provided several morphological parameters (e.g., surface area, optical thickness, eccentricity etc.) that allowed understanding of the results of impedance-based adhesion measurement. Holographic images were taken before and after the 3-hour treatment of A2058 cells with the compounds. The change in the morphological parameters shown in Table S1 in Supporting Information File 2 was calculated from a fold change during 3 h long treatment and this value was normalized to that of the control cells. The adhesion inducer effects of Dau and GnRH-III(Dau=Aoa) detected by the impedimetric assay were reflected in the morphometry analysis.
The experimental set up we used for the morphometry analysis can be also found in [6]. The HolomonitorTM M4 microscope (Phase Holographic Imaging AB, Lund, Sweden) was used for imaging and tracking the morphological changes of A2058 cells induced by the conjugates and Dau. This technique is dedicated to analyzing the morphology and movement of adherent cells by recording 3D, holographic phase contrast images and tracking them over a given time period. The principle behind this method is the detection of the phase shift of the probing laser light transmitting or reflecting through a cell sample and comparison to the reference light […]
A2058 cells were seeded (2.5 × 10^5 cells) in a petri dish (diameter: 35 mm) and allowed to adhere for 24 h. After automatic calibration of the background and microscope objective (20×), one field of each sample was focused on by the digital autofocus feature. The cells were then treated with the test compounds at the final concentrations of 10−7–10−5 mol/L, or with an equivalent volume of culture medium, and captured every 30 sec for 2 h.
For the evaluation, ca. 50 cells per time-lapse sequence were identified and selected by the minimum error histogram-based threshold algorithm of the HStudioTM M4 2.7.1 software (Phase Holographic Imaging AB, Lund, Sweden). The morphological changes were automatically analyzed over time by selecting and tracking individual cells.
For the morphometry analysis, different basic and complex morphological parameters were […]
The (i) area (surface area of the image occupied by a cell) and (ii) thickness (average spatial cell thickness) were grouped as basic metrics, while the more complex parameters relating to cell shape were: (iii) the eccentricity (how elongated a cell is comparing to a circle), (iv) the hull convexity (how different the 3D shape of a cell is compared to a perfect convex shape) and (v) the irregularity (how different the circumference of a cell is compared to the circumference of a perfect circle).
Table S1: Morphological changes of A2058 melanoma cells induced by the conjugates Compounds/ Area Thickness Eccentricity Hull convexity Irregularity concentrations [%] [%] [%] [%] [%]
[4Lys(Ac)] -GnRH-III(Dau=Aoa )
[4Lys(Bu)]-GnRH-III(Dau=Aoa)
Area (μm2) – surface area of the image that is occupied by the cell; Thickness (μm) – average thickness of the cell; Eccentricity – how elongated a cell comparing to a circle shape; Hull convexity – how different the 3D shape of a cell from the perfect convex shape; Irregularity – how different the circumference of a cell from the circumference of a perfect circle
Data represent averages and ±SD values calculated for 50 cells/group in 180 consecutive frames.
The presented data were calculated by HoloStudioTM M4 2.5 and analyzed by Origin Pro 2016. The levels of significance are shown as follows: *: p<0.05; **: p<0.01; ***: p<0.001

A2058 cells = assay: Cellular uptake by flow cytometry (Dau fluorescence); format: cell-based, human; settings: 10^−5 M, 1, 4 and 6 h, FACSCalibur flow cytometry, mean of 2 parallels
Description: For investigation and comparison of the cellular uptake of the conjugates, A2058 cells were treated with the conjugates at 10^−5 M concentration for 1, 4 and 6 h. The fluorescence intensity of intracellular Dau built in the conjugates and as the free drug was determined by flow cytometry (FACSCalibur; Becton Dickinson, San Jose, CA, USA).
Figure 2 Cellular uptake of Dau–GnRH-III conjugates and free daunorubicin (Dau) by A2058 cells. Cellular uptake of the compounds was studied in 10^−5 M concentration. GeoMean (geometric mean channel) value is a dimensionless value and refers to the relative fluorescence intensity. Data shown are mean of 2 parallels ± SD. […]
To study the cellular uptake of conjugates and Dau as the reference drug, A2058 cells (2 × 10^5 cells/well) were seeded on 12-well plates and cultured for 24 h. […] The measurements of internalized conjugates are based on the fluorescence activity of Dau. For detecting the intracellular fluorescence intensity of the cells, which is proportional with the cellular uptake, FACSCalibur flow cytometer (Becton Dickinson, San Jose, CA, USA) was used by collecting 10000 cells for each measurement. […] CellQuest Pro program (Becton-Dickinson, San Jose, CA, USA) was used for the measurement and the evaluation of relative fluorescence intensity (geometric mean channel – GeoMean values). […]

## COc1cccc2c1C(=O)c1c(O)c3c(c(O)c1C2=O)C[C@@](O)(C(C)=O)C[C@@H]3O[C@H]1C[C@H](N)[C@H](O)[C@H](C)O1 [daunorubicin]
A2058 melanoma cells; 10^-5 M
  Area: 99.1 ± 4.1%
  Eccentricity: 104.4 ± 1.84%
  Hull convexity: 101.2 ± 0.29%
  Irregularity: 102.6 ± 2.54%
  Thickness: 104.5 ± 2.12%
A2058 melanoma cells; 10^-6 M
  Eccentricity: 96.6 ± 1.83%
  Hull convexity: 100.1 ± 0.23%
  Thickness: 95.4 ± 1.87%
A2058 melanoma cells; 10^-6 M, listed as Dau
  Area: 124.1%
A2058 melanoma cells; 10^-7 M
  Area: 94.5 ± 3.72%
  Eccentricity: 95.2 ± 2.25%
  Hull convexity: 103.4 ± 0.29%
  Irregularity: 94.5 ± 2.41%
  Thickness: 101.8 ± 1.95%
A2058 cells
  Cellular uptake (GeoMean, relative intracellular fluorescence intensity normalized to control): high level of intracellular fluorescence
